Legend:
[1] = test system: Akt phosphorylation in MDA-MB-468; assay: Cellular inhibition of Akt phosphorylation; format: cell-based; settings: Homo sapiens, MDA-MB-468, read-out: inhibition of Akt phosphorylation IC50
96 kinases = assay: KinomeScan screen versus another 96 kinases; format: binding
PI3Kβ D862Q = PI3Kβ D862Q (Homo sapiens, UniProt P42338, D862Q); settings: cited from earlier work
PI3Kβ D862Q, sequence (P42338 whole entry D862Q): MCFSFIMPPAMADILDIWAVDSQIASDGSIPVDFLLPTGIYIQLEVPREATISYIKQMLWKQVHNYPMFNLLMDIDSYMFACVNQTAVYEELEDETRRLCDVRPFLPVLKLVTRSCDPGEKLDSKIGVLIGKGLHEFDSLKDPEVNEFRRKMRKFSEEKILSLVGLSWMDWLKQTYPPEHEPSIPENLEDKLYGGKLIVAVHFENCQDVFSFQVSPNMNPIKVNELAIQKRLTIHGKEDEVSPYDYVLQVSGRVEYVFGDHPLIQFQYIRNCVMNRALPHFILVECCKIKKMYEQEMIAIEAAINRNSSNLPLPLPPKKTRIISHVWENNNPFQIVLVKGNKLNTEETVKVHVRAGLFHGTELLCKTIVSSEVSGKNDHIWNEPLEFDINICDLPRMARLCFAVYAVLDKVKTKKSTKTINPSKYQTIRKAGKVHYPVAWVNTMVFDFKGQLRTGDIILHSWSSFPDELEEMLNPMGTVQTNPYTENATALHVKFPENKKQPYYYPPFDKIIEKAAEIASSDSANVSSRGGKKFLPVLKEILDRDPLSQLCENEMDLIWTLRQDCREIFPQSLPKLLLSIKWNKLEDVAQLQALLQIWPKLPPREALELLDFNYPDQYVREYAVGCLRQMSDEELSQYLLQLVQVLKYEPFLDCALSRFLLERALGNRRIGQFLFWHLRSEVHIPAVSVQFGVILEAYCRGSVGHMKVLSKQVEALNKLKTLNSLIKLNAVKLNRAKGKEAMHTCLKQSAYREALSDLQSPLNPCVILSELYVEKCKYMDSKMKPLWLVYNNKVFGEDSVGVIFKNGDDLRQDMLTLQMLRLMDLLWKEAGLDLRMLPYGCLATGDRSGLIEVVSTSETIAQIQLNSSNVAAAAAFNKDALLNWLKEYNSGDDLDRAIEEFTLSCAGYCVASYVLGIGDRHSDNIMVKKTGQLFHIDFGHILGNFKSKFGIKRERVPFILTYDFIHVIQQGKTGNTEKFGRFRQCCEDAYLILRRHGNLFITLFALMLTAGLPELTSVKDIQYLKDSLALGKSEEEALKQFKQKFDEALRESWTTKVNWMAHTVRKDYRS
PI3Kβ D862Q, sequence (P27986 whole entry partner): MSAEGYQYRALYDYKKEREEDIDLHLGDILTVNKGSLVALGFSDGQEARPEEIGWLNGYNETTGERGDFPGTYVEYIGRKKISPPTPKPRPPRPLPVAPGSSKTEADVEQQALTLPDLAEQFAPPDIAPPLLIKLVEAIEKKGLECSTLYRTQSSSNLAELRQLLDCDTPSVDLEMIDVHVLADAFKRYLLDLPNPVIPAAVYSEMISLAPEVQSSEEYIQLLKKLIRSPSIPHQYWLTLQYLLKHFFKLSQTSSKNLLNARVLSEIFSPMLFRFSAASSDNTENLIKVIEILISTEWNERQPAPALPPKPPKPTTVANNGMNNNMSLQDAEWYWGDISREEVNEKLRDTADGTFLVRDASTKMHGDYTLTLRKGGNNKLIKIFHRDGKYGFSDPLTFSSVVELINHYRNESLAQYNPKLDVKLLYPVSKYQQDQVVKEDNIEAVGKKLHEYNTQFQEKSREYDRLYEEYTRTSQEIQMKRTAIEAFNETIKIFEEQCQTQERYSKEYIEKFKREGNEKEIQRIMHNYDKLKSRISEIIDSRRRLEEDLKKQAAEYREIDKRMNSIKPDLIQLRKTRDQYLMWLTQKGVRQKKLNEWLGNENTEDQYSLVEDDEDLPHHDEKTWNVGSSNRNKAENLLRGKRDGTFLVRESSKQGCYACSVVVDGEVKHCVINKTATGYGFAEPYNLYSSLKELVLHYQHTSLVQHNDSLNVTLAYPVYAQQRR

Compound	IC50 [1]	KinomeScan binding affinity versus another 96 kinases (96 kinases)	effect of mutation D862Q in PI3Kβ on inhibition (PI3Kβ D862Q)
N[C@@H](Cc1ccccc1)C(=O)N1CCN(c2nc(N3CCOCC3)nc(-n3c(C(F)F)nc4ccccc43)n2)CC1 [Compound 21]	< 0.01 µM	only the class II PI3K PI3KC2β showed binding affinity comparable to that seen for PI3Kβ	
Cc1cc(C(C)Nc2ccccc2)c2nc(N3CCOCC3)cc(=O)n2c1 (stereo not drawn) [TGX221]			unaffected
